{"source": "paper PMC7289955", "about": "“The Role of Dopamine in the Stimulant Characteristics of Novel Psychoactive Substances (NPS)—Neurobiological and Computational Assessment Using the Case of Desoxypipradrol (2-DPMP)” (Frontiers in Pharmacology, 2020)", "target": "T1, dopamine transporter (DAT) (Rattus norvegicus, UniProt P23977)", "T1 construct": "gene Slc6a3; native DAT in rat brain sections (nucleus accumbens shell and caudate-putamen)", "T1 sequence (P23977 whole entry)": "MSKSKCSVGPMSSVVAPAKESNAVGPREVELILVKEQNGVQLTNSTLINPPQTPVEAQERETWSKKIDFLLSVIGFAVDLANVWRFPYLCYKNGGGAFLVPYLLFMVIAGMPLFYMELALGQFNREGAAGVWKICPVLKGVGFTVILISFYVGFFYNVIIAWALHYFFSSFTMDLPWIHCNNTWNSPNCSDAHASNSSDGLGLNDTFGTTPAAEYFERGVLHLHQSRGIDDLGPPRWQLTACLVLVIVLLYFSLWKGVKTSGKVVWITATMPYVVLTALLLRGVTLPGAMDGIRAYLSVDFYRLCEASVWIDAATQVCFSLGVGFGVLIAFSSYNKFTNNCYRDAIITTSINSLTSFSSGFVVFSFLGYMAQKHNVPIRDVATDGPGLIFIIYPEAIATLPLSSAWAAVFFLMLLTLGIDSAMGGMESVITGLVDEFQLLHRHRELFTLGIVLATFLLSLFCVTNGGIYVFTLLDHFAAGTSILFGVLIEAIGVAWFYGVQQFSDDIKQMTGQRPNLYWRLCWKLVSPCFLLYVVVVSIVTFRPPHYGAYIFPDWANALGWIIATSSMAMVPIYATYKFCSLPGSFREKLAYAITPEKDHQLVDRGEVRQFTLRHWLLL", "assay": "[…]RTI-121 displacement, quantitative autoradiography on rat brain sections", "note": "pIC50: −log10 of the molar value."}
{"smiles": "c1ccc(C(c2ccccc2)C2CCCCN2)cc1", "note": "(stereo not shown) [2-DPMP, 2-diphenylmethylpiperidine]", "values": [{"measurement": "pIC50", "result": 6.25}]}
